Each block holds one compound with its values, some of them ahead of it.
How the values were obtained:
[1] = tested on: POMC gene expression; assay: Particle-induced POMC gene expression in human epidermal keratinocytes (qRT-PCR); type: cell-based; details: for POMC 6 h gene expression: control = 1, particles alone 1.5 ± 0.031
Method: (§1) Gene expression was analyzed via qRT-PCR.
(§2) Ginger root CO2 extract has been dissolved in DMSO and diluted in medium. […] Gene expression was analyzed via qRT-PCR. […] Table 9 compiles the results for ginger root CO2 extract altered POMC and IL-6 gene expression
(§3) Purple coneflower pressed juice has been dissolved directly in medium. […] Gene expression was analyzed via qRT-PCR. […] Table 10 compiles the results for purple coneflower pressed juice altered POMC and IL-6 gene expression
(§4) A mixture of sclareloide and ginger root CO2 extract has been dissolved directly in medium. […] Gene expression was analyzed via qRT-PCR. […] Table 11 compiles the results for […] altered POMC and IL-6 gene expression

[2] = target: T1, AhR (Homo sapiens, UniProt P35869); assay: AhR antagonism, luciferase reporter gene assay in XRE-HepG2 cells; type: cell-based; details: 16 h or 24 h
T1 construct: endogenous in cells; host or cells: XRE-HepG2 (HepG2 carrying an XRE-driven luciferase reporter)
T1 sequence (P35869 11-848): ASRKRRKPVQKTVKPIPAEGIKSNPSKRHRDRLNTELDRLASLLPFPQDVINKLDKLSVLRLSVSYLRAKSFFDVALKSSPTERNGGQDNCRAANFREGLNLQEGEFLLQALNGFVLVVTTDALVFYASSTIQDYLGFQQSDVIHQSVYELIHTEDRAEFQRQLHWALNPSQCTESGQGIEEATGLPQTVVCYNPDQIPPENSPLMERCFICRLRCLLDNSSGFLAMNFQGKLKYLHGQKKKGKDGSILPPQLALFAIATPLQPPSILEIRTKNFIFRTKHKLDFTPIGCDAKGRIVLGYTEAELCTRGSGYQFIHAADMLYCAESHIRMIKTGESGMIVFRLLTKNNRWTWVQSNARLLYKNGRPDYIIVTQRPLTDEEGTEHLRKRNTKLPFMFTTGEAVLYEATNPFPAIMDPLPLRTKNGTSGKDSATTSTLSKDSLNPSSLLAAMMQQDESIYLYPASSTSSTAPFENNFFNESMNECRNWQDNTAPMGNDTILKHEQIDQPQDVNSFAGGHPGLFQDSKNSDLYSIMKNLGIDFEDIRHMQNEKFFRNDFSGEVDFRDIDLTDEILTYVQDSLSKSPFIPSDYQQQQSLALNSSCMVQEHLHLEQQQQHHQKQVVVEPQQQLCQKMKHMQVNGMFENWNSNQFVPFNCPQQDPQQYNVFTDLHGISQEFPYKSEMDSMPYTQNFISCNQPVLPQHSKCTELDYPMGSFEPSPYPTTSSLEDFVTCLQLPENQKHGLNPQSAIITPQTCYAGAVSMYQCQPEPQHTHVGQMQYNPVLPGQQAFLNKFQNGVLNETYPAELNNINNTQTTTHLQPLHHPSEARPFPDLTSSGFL
Method: For reporter gene analyses, 1×10^5 XRE-HepG2 cells/well were seeded in 12-well plates and cultured overnight. Cells were treated for 16 h or 24 h with the indicated substances.
Cell lysates were prepared, and luciferase activities were determined using the luciferase assay system. Protein concentrations were determined by using the BC Assay protein quantification kit. Luciferase activities were normalized against the protein concentration of each probe. Each sample was analyzed in triplicate.

[3] = tested on: POMC protein level; assay: Particle-induced POMC protein release from HaCaT cells (ELISA of supernatant); type: cell-based
Method: II) HaCaT cells are seeded into a 96-well plate with 0.3×10^4 cells/well. After incubation over night the test compound (10 μM Sclareolide) is added to the cells and the plate is incubated for two more hours. Then diesel exhaust particles (SRM 1650b) are added to a final concentration of 1.5 μg/cm2 and the plate incubated for 24 hours. The supernatant is transferred into an ELISA plate (Cusabio, CSB-E09307 h) and the POMC protein level quantified using ELISA technique performed according to the manufacturer's instructions.

[4] = tested on: MMP1 gene expression; assay: Particle-induced MMP1 gene expression in human epidermal keratinocytes (qRT-PCR); type: cell-based; details: for MMP-1 24 h gene expression / MMP1 24 h gene expression: SRM1650b; for MMP-1 24 h gene expression: untreated = 1, particles alone 1.57 ± 0.05; for MMP1 24 h gene expression: control = 1, particles alone 1.3 ± 0.03
Method: as §1

[5] = tested on: IL-6 gene expression; assay: Particle-induced IL-6 gene expression in human epidermal keratinocytes (qRT-PCR); type: cell-based; details: for IL-6 6 h gene expression: SRM1650b
Method: as §1, §2, §3, §4

[6] = tested on: CYP1A1 gene expression; assay: Particle-induced CYP1A1 gene expression in human epidermal keratinocytes (qRT-PCR); details: for CYP1A1 Induction mean ± SE: NHEK adult; for CYP1A1 Induction mean ± SE / CYP1A1 gene expression, Induction mean ± SE: 10 μM; for CYP1A1 gene expression, Induction mean ± SE: indoor particles Huber990 1.5 μg/cm2
Method: Adult human epidermal keratinocytes were cultured in keratinocyte medium without BPE and without EGF for 24 h prior to addition of model particles (see table 1.1). The model particles were suspended in phosphate buffered saline and were sonicated for 1 min and then directly added to the keratinocytes at 1.5 μg/cm^2. […] Solutions containing the compound with maximal 0.1% DMSO were applied 2 h prior to treatment with the model particles. Gene expression was analyzed via qRT-PCR.

- Relative luciferase activity (fold of DMSO control) ([2]; 10 μM + 1 μM BaP, DMSO = 1.00, BaP alone 20.78 ± 1.04): 12.28 ± 4.90 fold of DMSO control
- Relative luciferase activity (fold of DMSO control) ([2]; 20 μM + 1 μM BaP, DMSO = 1.00, BaP alone 20.78 ± 1.04): 9.60 ± 1.32 fold of DMSO control
- Relative luciferase activity (fold of DMSO control) ([2]; 20 μM alone, no BaP, DMSO = 1.00): 1.06 ± 0.45 fold of DMSO control
Compound: CC1(C)CCC[C@]2(C)C3CC(=O)O[C@]3(C)CC[C@@H]12 (stereo partly drawn) [Sclareolide, (3aR,5aS,9aS,9bR)-decahydro-3a,6,6,9a-tetramethyl-naphtha[2,1-b]furan-2(1H)-one]
- particle induced POMC gene expression (result in words) [1]: capable to inhibit
- POMC 24 h gene expression ([1]; 10 μM, SRM1650b, untreated = 1, particles alone 1.50 ± 0.06): 1.03 ± 0.07
- POMC 24 h gene expression ([1]; 10 μM, SRM2975, untreated = 1, particles alone 1.30 ± 0.00): 0.73 ± 0.06
- POMC normalized to control ([3]; 10 μM Sclareolide added 2 h before SRM 1650b 1.5 μg/cm2, 24 hours, control = 1.00, particles alone 1.43 ± 0.082): 1.22 ± 0.009
- particle induced POMC release (result in words) ([3]; SRM 1650b): capable to inhibit
- particle induced MMP1 gene expression (result in words) [4]: capable to inhibit
- MMP-1 24 h gene expression ([4]; 0.00001%): 1.41 ± 0.04
- MMP-1 24 h gene expression ([4]; 0.00005%): 1.29 ± 0.02
- particle induced IL-6 gene expression (result in words) [5]: capable to inhibit
- IL-6 6 h gene expression ([5]; 0.00001%, untreated = 1, particles alone 1.90 ± 0.04): 1.53 ± 0.04
- IL-6 6 h gene expression ([5]; 0.00005%, untreated = 1, particles alone 1.90 ± 0.04): 1.42 ± 0.02

- CYP1A1 Induction mean ± SE ([6]; SRM1650 1.5 μg/cm2, 6 h, untreated = 1, particles alone 2.90 ± 0.12): 0.02 ± 0.00
- CYP1A1 Induction mean ± SE ([6]; SRM1650 1.5 μg/cm2, 6 h, untreated = 1, particles alone 5.33 ± 0.07): 1.83 ± 0.03
- CYP1A1 Induction mean ± SE ([6]; SRM1650 1.5 μg/cm2, 24 h, untreated = 1, particles alone 16.53 ± 0.98): 4.17 ± 0.09
- CYP1A1 Induction mean ± SE ([6]; SRM1650 1.5 μg/cm2, 24 h, untreated = 1, particles alone 23.23 ± 0.64): 8.77 ± 0.09
- CYP1A1 Induction mean ± SE ([6]; SRM2975 1.5 μg/cm2, 6 h, untreated = 1, particles alone 1.03 ± 0.03 (n.s.)): 0.20 ± 0.00
- CYP1A1 Induction mean ± SE ([6]; SRM2975 1.5 μg/cm2, 6 h, untreated = 1, particles alone 2.07 ± 0.07): 0.05 ± 0.0003
- CYP1A1 Induction mean ± SE ([6]; SRM2975 1.5 μg/cm2, 24 h, untreated = 1, particles alone 4.90 ± 0.17): 0.01 ± 0.00
- CYP1A1 Induction mean ± SE ([6]; SRM2975 1.5 μg/cm2, 24 h, untreated = 1, particles alone 5.10 ± 0.06): 0.60 ± 0.06
- particle induced Cyp1A1 gene expression (result in words) ([6]; indoor as well as outdoor model particles): capable to inhibit
- CYP1A1 gene expression, Induction mean ± SE ([6]; 6 h, untreated = 1, particles alone 2.70 ± 0.00): 0.05 ± 0.00
- CYP1A1 gene expression, Induction mean ± SE ([6]; 24 h, untreated = 1, particles alone 2.90 ± 0.00): 0.20 ± 0.00
Compound: E/Z-2-benzylindene-5,6-dimethoxy-3,3-dimethylindan-1-one [BDDI]
- particle induced POMC gene expression (result in words) [1]: capable to inhibit
- POMC 6 h gene expression ([1]; 1 μM, SRM1650b): 0.9 ± 0.018
- POMC 6 h gene expression ([1]; 2.5 μM, SRM1650b): 1.1 ± 0.02
- POMC 6 h gene expression ([1]; 10 μM, SRM1650b): 0.9 ± 0.001
- particle induced MMP1 gene expression (result in words) [4]: capable to inhibit
- MMP1 24 h gene expression ([4]; 1 μM): 0.7 ± 0.014
- MMP1 24 h gene expression ([4]; 2.5 μM): 0.8 ± 0.016
- MMP1 24 h gene expression ([4]; 10 μM): 0.5 ± 0.022
- particle induced IL-6 gene expression (result in words) [5]: capable to inhibit
- IL-6 6 h gene expression ([5]; 1 μM, control = 1, particles alone 1.4 ± 0.041): 0.9 ± 0.067
- IL-6 6 h gene expression ([5]; 2.5 μM, control = 1, particles alone 1.4 ± 0.041): 0.6 ± 0.006
- IL-6 6 h gene expression ([5]; 10 μM, control = 1, particles alone 1.4 ± 0.041): 0.5 ± 0.01

Source: US10357447B2, “Cosmetic compositions comprising sclareolide” (Symrise AG, priority 2015, dated 2019)
